Experimental data reported in patent US20120190707A1, “SELECTIVE INHIBITORS OF AKT AND METHODS OF USING SAME” (priority 2008, published 2012).
“Also recorded” adds a separate entry of the source.

Columns and labels:
PRAS40 = test: IGF-1 induced PRAS40 phosphorylation by western analysis in 29-1 cells; type: cell-based, human; settings: IGF-1 (20 ng/mL), 10.micro.M
Method: (§1) FIG. 6 describes the effect of BI-69A11 on phosphorylation and total levels of AKT in UACC 903 (PTEN−) cells. (A) UACC903 and the modified clone 29-1 (PTEN+) cells were exposed to 10 micro.M BI-69A11 and 50 micro.M LY294002 (a PI3K inhibitor) and the levels of pAKT473 and total AKT determined by western analysis. […] (SF=Serum Free). (B) BI-69A11 inhibits PRAS40 phosphorylation. UACC903 melanoma cells or 29-1 cells (PTEN+) were subjected to treatment with IGF-1 (20 ng/mL) and the level of PRAS40 phosphorylation was assessed. […] The cells were collected, lysed and levels of pPRAS40 and total PRAS40 determined by western analysis. (C) AKT association with HSP90 is inhibited by BI-69A11. Human melanoma cells were treated with BI-69A11 (10.micro.M) or DMSO control for 4 h, followed by protein preparation and immunoprecipitation using antibodies to pan-AKT. MG132 treatment, when used, initiated 1 h prior to treatment and lasted up to the preparation of proteins (total of 5 h). The right panel depicts analysis of total lysates.
We next tested the effect of BI-69A11 in 29-1 cells which are derivative of UAC903 that were reconstituted with chromosome 10 carrying the wt PTEN. Thus, 29-1 cells no longer express a constitutively active form of AKT (Robertson et al., 1998). To activate AKT, 29-1 cells were treated with IGF-1 (FIG. 6B). […]

MeWo melanoma cells = test: Cell death by trypan blue staining, MeWo; type: cell-based
Method: (A) MeWo melanoma cells growing in 60 mm plates were treated with the indicated concentration of the inhibitor for 4 h before proteins were prepared for western blot analysis using the indicated antibodies. Level of beta.actin was monitored as a control for protein loading. (B) Experiment was performed as indicated in panel A, except that cells were harvested after 24 h for analysis of cell death using trypan blue staining. (C) Melanoma (MeWo), prostate cancer (PC3) and breast cancer (MCF7) cells were treated with BI-69A11 at the indicated concentrations; levels of AKT phosphorylation or expression were assessed 4 h later. The level of beta.actin used as a control for protein loading. (D) Experiment was performed as indicated in panel C, except that cells were harvested after 4 h for analysis of cell death using trypan blue staining.
To evaluate the effectiveness of BI-69A11 on melanoma cells we assessed the effect of different concentrations on AKT phosphorylation in MeWO cells.
For the proliferation assays, cells were treated as described above. However, instead of scraping cells into the serum-free medium, floating cells were collected in a 15 mL centrifuge tube whereas adherent cells trypsinized gently. The total cell population was pooled and counted on a hemocytometer after staining with Trypan Blue.

ATM-CHK2 axis = test: ATM and CHK2 phosphorylation (DNA damage response) western analysis in UACC903 cells; type: cell-based, human
Method: UACC903 melanoma cells were exposed to vehicle control or 10 μM BI-69A11 for 1 h prior to γ-irradiation (10 Gray). Cells were harvested at the indicated time points post-irradiation and whole cell lysates were subjected to western analysis for phosphorylated ATM, total ATM, phosphorylated Chk2, and PLCγ (as loading control).
FIG. 14 is an assessment of BI-69A11 analogs on Chk2 phosphorylation. UACC903 melanoma cells were exposed to vehicle control, 10 μM BI-69A11, or 10 μM analog for 2 h. Cells were harvested and whole cell lysates were subjected to western analysis for phosphorylated Chk2 and PLCγ (as loading control).
To accomplish this, we g-irradiated vehicle- or BI69A11-treated cells and examined ATM and CHK2 phosphorylation, a well-characterized surrogate of activation (FIG. 13). In vehicle-treated cells, g-irradiation led to the robust phosphorylation of ATM and CHK2.
We next examined the panel of BI-69A11 analogs for their ability to stimulate CHK2 phosphorylation in UACC903 cells (FIG. 14).
For western blotting techniques, cells were lysed in RIPA buffer containing 50 mM TrisHCl pH7.4, 150 mM NaCl, 2 mM EDTA, 1% NP-40, 0.1% SDS. The protein concentration was estimated using the Coomassie Protein assay kit (Thermo Scientific, Rockford, Ill., USA). Equal concentrations of cell lysate (30-50 ug) were resolved on a 10% polyacrylamide gel and transferred onto Nitrocellulose membrane (GE Amersham). Membranes were blocked for 1-2 hours in either 3% BSA or 5% nonfat dried milk in Tris-buffered saline containing 0.05% Tween 20. Primary antibody incubations were performed overnight at 4° C. with shaking. The blots were washed followed by incubation with a secondary antibody incubation for 1 hour at room temperature. After washing, the blots were scanned on the Odyssey Licor scanner at the appropriate wavelength and the image was captured using the Odyssey software.

JNK = test: Activity of other protein kinases: JNK; type: biochemical; settings: 100 micro.M
Source text: We recently reported on the direct evaluation of a number of in silico approaches to identify AKT inhibitors (Forino et al., 2005) We achieved experimental validation of selected compounds using both a fluorescence-based enzymatic assay and a substrate phosphorylation assay involving the protein GSK-3 (Forino et al., 2005). Briefly, the virtual docking approach consists of selecting the top 4,000 out of 50,000 docked compounds, using a variety of computational docking approaches, including a consensus score among two different scoring functions (Forino et al., 2005). Of those, 100 compounds were selected based on ranking and favorable docking geometry.

AKT = test: pAKT473 and total AKT by western analysis in UACC 903 (PTEN-) cells; type: cell-based, human
Method: as §1
The term “cell lines”, as used herein, unless otherwise indicated, refer to UACC 903 cells and 29-1 cells. The cells were cultured in DMEM, supplemented with 10% FBS and maintained at 37° C. in 5% CO2. Cells were plated to 75% confluency and grown overnight at 37° C. Plates were rinsed twice with a serum-free DMEM medium and the appropriate concentration of the compound was added to the plates. Cells were harvested at different timepoints by scraping (for western blotting) or trypsinization (for cell proliferation assay) where appropriate.
Thus, we set to test the possibility that BI-69A11's ability to inhibit AKT activity may stem from inhibition of AKT protein expression (see data below). We thus assessed whether inhibition of AKT Ser473 phosphorylation coincides with its activity, namely the phosphorylation of known AKT substrates. […] Of note, AKT3, the primarily active isoform of AKT in melanoma cells, effectively phosphorylates PRAS40 (Madhunapantula et al., 2007). […]

**Q.** What does the source list for `O=C(/C=C/c1nc2ccccc2[nH]1)c1c(O)nc2ccc(Cl)cc2c1-c1ccccc1` [Compound 2, (E)-3-(3-(1H-benzo[d]imidazol-2-yl)acryloyl)-6-chloro-4-phenylquinolin-2(1H)-one]?
**A.** phosphorylation of PRAS40 (PRAS40): effectively inhibited; cell death (MeWo melanoma cells; 3 micro.M, within 24 hours): about 60%; cell death (MeWo melanoma cells; 5 micro.M, within 4 hours): about 25%; ATM and CHK2 phosphorylation in the absence of radiation (ATM-CHK2 axis; 10 μM): leads to ATM and CHK2 phosphorylation; ATM or CHK2 phosphorylation following g-irradiation (ATM-CHK2 axis; 10 μM for 1 h prior to γ-irradiation (10 Gray)): did not inhibit; CHK2 phosphorylation / activation (ATM-CHK2 axis; 10 μM for 2 h): induced the activation of CHK2 to a similar extent; effect on JNK activity (JNK): did not affect; levels of pAKT473 (AKT; 10 micro.M, UACC903 and 29-1 cells, FIG. 6A): Reduced levels of pAKT473; levels of total AKT (AKT; 903 cells, 10 micro.M, increasing time after treatment): reduced levels of total AKT; levels of pAKT Ser473 / AKT phosphorylation (AKT; UACC 903 cells, listed as BI-69A11): dose-dependent decrease; also recorded: effectively blocked
